According to US20230404863A1, “MICRONEEDLE PATCH AND PREPARATION METHOD THEREFOR” (SUZHOU REVEDA MEDICAL BIOTECH CO., LTD., priority 2020, published 2023):

Assay: Stability of astaxanthin in patch vs aqueous solution (UV spectrophotometer, color)
Type: physicochemical
Conditions: room temperature
Text: Astaxanthin and resveratrol are easily oxidized and are very unstable in water and in emulsions. Due to immiscibility of resveratrol with water, it was first hydrophilically modified, and its stability in patches and that in solutions was compared. The patches were made of astaxanthin and the hydrophilically modified resveratrol, and the solutions were aqueous solutions of astaxanthin and the hydrophilically modified resveratrol at the same concentrations.

CC1=C(/C=C/C(C)=C/C=C/C(C)=C/C=C/C=C(C)/C=C/C=C(C)/C=C/C2=C(C)C(=O)[C@@H](O)CC2(C)C)C(C)(C)C[C@H](O)C1=O [astaxanthin]
Content of astaxanthin after 6 days vs the beginning (in aqueous solution at the same concentration, without avoiding exposure to light): significantly lower than that at the beginning
Color of astaxanthin after 6 days (in aqueous solution): became much lighter
